Source: patent publication US12421282B2, “Compositions and methods for the treatment of metabolic and liver disorders” (priority 2021, dated 2025)
Where two headings read alike, the source gives them in different places. *1 amine or outer side, *2 acyl side, *3 side chain or, on linkers, in order; H or OH if unused. Where a SMILES comes first, the peptide text is derived from it. Side-chain parts run from the residue outwards. [ ]: non-standard residue; d: D form. The star is where a group is joined. Nonadecanoyl(19-PO3H2) = O=C(CCCCCCCCCCCCCCCCCCP(=O)(O)O)*; γGlu = O=C(O)[C@H](CCC(=O)[*:2])N[*:1]; AEEA = NCCOCCOCC(=O)O; Aib = CC(C)(N)C(=O)O

Assays:
[1] = parameters: species or system cynomolgus monkeys; conditions: cynomolgus monkey, in vivo
Experimental: Subcutaneous (SC) dosing of the compounds in a vehicle of 0.1% bovine serum albumin in phosphate buffered saline solution was performed with male cynomolgus monkeys. […] Samples were obtained at 1, 4, 8, 12, 24, 48, 72, 96, 120, 168, 192, 240 and 336 hours after the single dose was administered.

[2] = molecular target: T1, human recombinant GIP receptor (Homo sapiens, UniProt P48546); assay: TagLite binding assay, GIP receptor, without and with 2% HSA
T1 sequence (P48546 22-466): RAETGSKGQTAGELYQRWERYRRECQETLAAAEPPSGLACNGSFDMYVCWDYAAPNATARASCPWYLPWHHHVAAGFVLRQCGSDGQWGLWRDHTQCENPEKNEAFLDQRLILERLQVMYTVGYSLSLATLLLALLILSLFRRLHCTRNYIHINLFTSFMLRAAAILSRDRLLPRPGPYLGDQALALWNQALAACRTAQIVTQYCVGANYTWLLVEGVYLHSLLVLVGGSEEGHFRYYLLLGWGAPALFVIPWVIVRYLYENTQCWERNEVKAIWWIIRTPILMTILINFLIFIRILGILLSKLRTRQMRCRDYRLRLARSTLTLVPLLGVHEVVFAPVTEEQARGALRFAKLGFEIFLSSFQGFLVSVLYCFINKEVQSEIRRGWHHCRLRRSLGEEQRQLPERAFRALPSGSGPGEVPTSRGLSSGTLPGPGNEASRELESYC
Source text: (§1) Binding data for Compounds 15-25, for two human recombinant G protein coupled receptors, GLP-1 and GIP, was obtained using […]® binding assay and Epics Therapeutics cell lines. The binding assay was repeated in the presence of 2% human serum albumin (HSA). Compounds 16, 21, and 22 have an HSA ratio for the GLP-1 receptor of 7.1, 7.6, and 7.8, respectively. Compounds 15, 18, and 23 have an HSA ratio for the GIP receptor of 7.3, 4.3, and 6.4, respectively. A lower HSA ratio indicates greater binding affinity for the receptor than for albumin when compared to a compound with a greater HSA ratio.

[3] = molecular target: human recombinant GLP-1 receptor (Homo sapiens, UniProt P43220); assay: TagLite binding assay, GLP-1 receptor, without and with 2% HSA
Source text: as §1

human recombinant GLP-1 receptor, sequence (P43220 24-463): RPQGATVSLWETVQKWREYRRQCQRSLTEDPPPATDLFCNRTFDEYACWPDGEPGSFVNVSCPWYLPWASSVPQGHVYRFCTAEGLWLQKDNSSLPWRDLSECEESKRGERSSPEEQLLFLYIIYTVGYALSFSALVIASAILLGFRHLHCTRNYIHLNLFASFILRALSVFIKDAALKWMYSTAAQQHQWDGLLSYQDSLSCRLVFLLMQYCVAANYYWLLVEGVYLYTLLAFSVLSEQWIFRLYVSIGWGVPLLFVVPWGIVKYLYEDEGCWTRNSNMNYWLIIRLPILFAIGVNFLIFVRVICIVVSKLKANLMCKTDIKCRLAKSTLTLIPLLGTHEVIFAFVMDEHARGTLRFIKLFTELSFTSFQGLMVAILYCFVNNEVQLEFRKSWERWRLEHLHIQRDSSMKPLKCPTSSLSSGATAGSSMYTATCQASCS

`CC[C@H](C)[C@H](NC(=O)[C@H](CC(C)C)NC(=O)[C@H](Cc1c[nH]c2ccccc12)NC(=O)[C@H](CC(N)=O)NC(=O)[C@@H](NC(=O)[C@H](Cc1ccccc1)NC(=O)[C@H](C)NC(=O)[C@H](CCC(N)=O)NC(=O)[C@H](CCCCNC(=O)COCCOCCNC(=O)COCCOCCNC(=O)CC[C@H](NC(=O)CCCCCCCCCCCCCCCCCCP(=O)(O)O)C(=O)O)NC(=O)[C@H](C)NC(=O)[C@@H](NC(=O)[C@H](CCCCN)NC(=O)[C@H](CC(=O)O)NC(=O)[C@H](CC(C)C)NC(=O)C(C)(C)NC(=O)[C@@H](NC(=O)[C@H](CO)NC(=O)[C@H](Cc1ccc(O)cc1)NC(=O)[C@H](CC(=O)O)NC(=O)[C@H](CO)NC(=O)[C@@H](NC(=O)[C@H](Cc1ccccc1)NC(=O)[C@@H](NC(=O)CNC(=O)[C@H](CCC(=O)O)NC(=O)C(C)(C)NC(=O)[C@@H](N)Cc1ccc(O)cc1)[C@@H](C)O)[C@@H](C)O)[C@@H](C)CC)[C@@H](C)CC)C(C)C)C(=O)N[C@@H](C)C(=O)NCC(=O)NCC(=O)N1CCC[C@H]1C(=O)N[C@@H](CO)C(=O)N[C@@H](CO)C(=O)NCC(=O)N[C@@H](C)C(=O)N1CCC[C@H]1C(=O)N1CCC[C@H]1C(=O)N1CCC[C@H]1C(=O)N[C@@H](CO)C(N)=O` [Compound 22] (H-Y[Aib]EGTFTSDYSI[Aib]LDKIAK([AEEA-AEEA-γGlu-Nonadecanoyl(19-PO3H2)])QAFVNWLIAGGPSSGAPPPS-NH2) showed an AUC(0-inf) ([1]; sc, 0.2 mg/kg) of 510 µg·h/mL, an AUC(0-t) ([1]; sc, 0.2 mg/kg) of 417 µg·h/mL and a Cmax ([1]; sc, 0.2 mg/kg) of 2380 ng/mL. The Tmax ([1]; sc, 0.2 mg/kg) was 33.3 h, the half-life ([1]; sc, 0.2 mg/kg) was 137 h and the “mean half life as compared to tirzepatide (in words)” value ([1]; sc, 0.2 mg/kg) was “more than twice an long as compared to tirzepatide”. The “mean half life longer compared to tirzepatide” value ([1]; sc, 0.2 mg/kg) was “at least 50%”.
With `CC[C@H](C)[C@H](NC(=O)[C@H](CC(C)C)NC(=O)[C@H](Cc1c[nH]c2ccccc12)NC(=O)[C@H](CCC(N)=O)NC(=O)[C@@H](NC(=O)[C@H](Cc1ccccc1)NC(=O)[C@H](C)NC(=O)[C@H](CCCCNC(=O)COCCOCCNC(=O)COCCOCCNC(=O)CC[C@H](NC(=O)CCCCCCCCCCCCCCCCCCP(=O)(O)O)C(=O)O)NC(=O)[C@H](CCC(N)=O)NC(=O)[C@H](C)NC(=O)[C@@H](NC(=O)[C@H](CCCNC(=N)N)NC(=O)[C@H](CC(=O)O)NC(=O)[C@H](CC(C)C)NC(=O)C(C)(C)NC(=O)[C@@H](NC(=O)[C@H](CO)NC(=O)[C@H](Cc1ccc(O)cc1)NC(=O)[C@H](CC(=O)O)NC(=O)[C@H](CO)NC(=O)[C@@H](NC(=O)[C@H](Cc1ccccc1)NC(=O)[C@@H](NC(=O)CNC(=O)[C@H](CCC(=O)O)NC(=O)C(C)(C)NC(=O)[C@@H](N)Cc1ccc(O)cc1)[C@@H](C)O)[C@@H](C)O)[C@@H](C)CC)[C@@H](C)CC)C(C)C)C(=O)N[C@@H](C)C(=O)NCC(=O)NCC(=O)N1CCC[C@H]1C(=O)N[C@@H](CO)C(=O)N[C@@H](CO)C(=O)NCC(=O)N[C@@H](C)C(=O)N1CCC[C@H]1C(=O)N1CCC[C@H]1C(=O)N1CCC[C@H]1C(=O)N[C@@H](CO)C(N)=O` [Compound 16] (H-Y[Aib]EGTFTSDYSI[Aib]LDRIAQK([AEEA-AEEA-γGlu-Nonadecanoyl(19-PO3H2)])AFVQWLIAGGPSSGAPPPS-NH2) the AUC(0-inf) ([1]; sc, 0.2 mg/kg) was 144 µg·h/mL, the AUC(0-t) ([1]; sc, 0.2 mg/kg) was 138 µg·h/mL and the Cmax ([1]; sc, 0.2 mg/kg) was 1570 ng/mL. The Tmax ([1]; sc, 0.2 mg/kg) was 9.33 h and the half-life ([1]; sc, 0.2 mg/kg) was 70.1 h.
With `CC[C@H](C)[C@H](NC(=O)[C@H](CCCCN)NC(=O)[C@H](CC(=O)O)NC(=O)[C@H](CC(C)C)NC(=O)C(C)(C)NC(=O)[C@@H](NC(=O)[C@H](CO)NC(=O)[C@H](Cc1ccc(O)cc1)NC(=O)[C@H](CC(=O)O)NC(=O)[C@H](CO)NC(=O)[C@@H](NC(=O)[C@H](Cc1ccccc1)NC(=O)[C@@H](NC(=O)CNC(=O)[C@H](CCC(=O)O)NC(=O)C(C)(C)NC(=O)[C@@H](N)Cc1ccc(O)cc1)[C@@H](C)O)[C@@H](C)O)[C@@H](C)CC)C(=O)N[C@@H](C)C(=O)N[C@@H](CCC(N)=O)C(=O)N[C@@H](CCCCNC(=O)COCCOCCNC(=O)COCCOCCNC(=O)CC[C@H](NC(=O)CCCCCCCCCCCCCCCCCCP(=O)(O)O)C(=O)O)C(=O)N[C@@H](C)C(=O)N[C@@H](Cc1ccccc1)C(=O)N[C@H](C(=O)N[C@@H](CCC(N)=O)C(=O)N[C@@H](Cc1c[nH]c2ccccc12)C(=O)N[C@@H](CC(C)C)C(=O)N[C@H](C(=O)N[C@@H](CCCNC(=N)N)C(=O)NCC(=O)NCC(=O)N1CCC[C@H]1C(=O)N[C@@H](CO)C(=O)N[C@@H](CO)C(=O)NCC(=O)N[C@@H](C)C(=O)N1CCC[C@H]1C(=O)N1CCC[C@H]1C(=O)N1CCC[C@H]1C(=O)N[C@@H](CO)C(N)=O)[C@@H](C)CC)C(C)C` [Compound 20] (H-Y[Aib]EGTFTSDYSI[Aib]LDKIAQK([AEEA-AEEA-γGlu-Nonadecanoyl(19-PO3H2)])AFVQWLIRGGPSSGAPPPS-NH2) the AUC(0-inf) ([1]; sc, 0.2 mg/kg) was 417 µg·h/mL, the AUC(0-t) ([1]; sc, 0.2 mg/kg) was 342 µg·h/mL and the Cmax ([1]; sc, 0.2 mg/kg) was 2060 ng/mL. For the same compound, the Tmax ([1]; sc, 0.2 mg/kg) was 13.3 h, the half-life ([1]; sc, 0.2 mg/kg) was 132 h and the “mean half life as compared to tirzepatide (in words)” value ([1]; sc, 0.2 mg/kg) was “more than twice an long as compared to tirzepatide”. For the same compound, the “mean half life longer compared to tirzepatide” value ([1]; sc, 0.2 mg/kg) was “at least 50%”, the IC50 ([2]; 2% human serum albumin, read-out: GIP receptor IC50 2% HSA) was 4.42 µM and the IC50 ([2]; no HSA, read-out: GIP receptor IC50 No HSA) was 0.492 µM. It also gave an IC50 ([3]; 2% human serum albumin, read-out: GLP-1 receptor IC50 2% HSA) of 2.05 µM and an IC50 ([3]; no HSA, read-out: GLP-1 receptor IC50 No HSA) of 0.226 µM.
`CC[C@H](C)[C@H](NC(=O)[C@H](CC(C)C)NC(=O)[C@H](Cc1c[nH]c2ccccc12)NC(=O)[C@H](CCC(N)=O)NC(=O)[C@@H](NC(=O)[C@H](Cc1ccccc1)NC(=O)[C@H](C)NC(=O)[C@H](CCCCNC(=O)COCCOCCNC(=O)COCCOCCNC(=O)CC[C@H](NC(=O)CCCCCCCCCCCCCCCCCCP(=O)(O)O)C(=O)O)NC(=O)[C@H](CCC(N)=O)NC(=O)[C@H](C)NC(=O)[C@@H](NC(=O)[C@H](CCCCN)NC(=O)[C@H](CC(=O)O)NC(=O)[C@H](CC(C)C)NC(=O)C(C)(C)NC(=O)[C@@H](NC(=O)[C@H](CO)NC(=O)[C@H](Cc1ccc(O)cc1)NC(=O)[C@H](CC(=O)O)NC(=O)[C@H](CO)NC(=O)[C@@H](NC(=O)[C@H](Cc1ccccc1)NC(=O)[C@@H](NC(=O)CNC(=O)[C@H](CCC(=O)O)NC(=O)C(C)(C)NC(=O)[C@@H](N)Cc1ccc(O)cc1)[C@@H](C)O)[C@@H](C)O)[C@@H](C)CC)C(C)C)C(C)C)C(=O)N[C@@H](CCCNC(=N)N)C(=O)NCC(=O)NCC(=O)N1CCC[C@H]1C(=O)N[C@@H](CO)C(=O)N[C@@H](CO)C(=O)NCC(=O)N[C@@H](C)C(=O)N1CCC[C@H]1C(=O)N1CCC[C@H]1C(=O)N1CCC[C@H]1C(=O)N[C@@H](CO)C(N)=O` [Compound 25] (H-Y[Aib]EGTFTSDYSI[Aib]LDKVAQK([AEEA-AEEA-γGlu-Nonadecanoyl(19-PO3H2)])AFVQWLIRGGPSSGAPPPS-NH2) gave an AUC(0-inf) [1] of 287 µg·h/mL, an AUC(0-t) [1] of 272 µg·h/mL and a Cmax [1] of 1570 ng/mL. The Tmax [1] was 24 h and the half-life [1] was 117 h.
Work on `CC[C@H](C)[C@H](NC(=O)[C@H](CC(C)C)NC(=O)[C@H](Cc1c[nH]c2ccccc12)NC(=O)[C@H](CCC(N)=O)NC(=O)[C@@H](NC(=O)[C@H](Cc1ccccc1)NC(=O)[C@H](C)NC(=O)[C@H](CCCCNC(=O)COCCOCCNC(=O)COCCOCCNC(=O)CC[C@H](NC(=O)CCCCCCCCCCCCCCCCCCC(=O)O)C(=O)O)NC(=O)[C@H](CCC(N)=O)NC(=O)[C@H](C)NC(=O)[C@@H](NC(=O)[C@H](CCCCN)NC(=O)[C@H](CC(=O)O)NC(=O)[C@H](CC(C)C)NC(=O)C(C)(C)NC(=O)[C@@H](NC(=O)[C@H](CO)NC(=O)[C@H](Cc1ccc(O)cc1)NC(=O)[C@H](CC(=O)O)NC(=O)[C@H](CO)NC(=O)[C@@H](NC(=O)[C@H](Cc1ccccc1)NC(=O)[C@@H](NC(=O)CNC(=O)[C@H](CCC(=O)O)NC(=O)C(C)(C)NC(=O)[C@@H](N)Cc1ccc(O)cc1)[C@@H](C)O)[C@@H](C)O)[C@@H](C)CC)[C@@H](C)CC)C(C)C)C(=O)N[C@@H](C)C(=O)NCC(=O)NCC(=O)N1CCC[C@H]1C(=O)N[C@@H](CO)C(=O)N[C@@H](CO)C(=O)NCC(=O)N[C@@H](C)C(=O)N1CCC[C@H]1C(=O)N1CCC[C@H]1C(=O)N1CCC[C@H]1C(=O)N[C@@H](CO)C(N)=O` [TRZ, Tirzepatide, reference compound] yielded an AUC(0-inf) ([1]; sc, 0.2 mg/kg) of 242 µg·h/mL, an AUC(0-t) ([1]; sc, 0.2 mg/kg) of 237 µg·h/mL and a Cmax ([1]; sc, 0.2 mg/kg) of 2250 ng/mL. For the same compound, the Tmax ([1]; sc, 0.2 mg/kg) was 40 h and the half-life ([1]; sc, 0.2 mg/kg) was 57.1 h.
